Earlier results as cited in publication PMC11952222, “Development and comparison of single FLT3-inhibitors to dual FLT3/TAF1-inhibitors as an anti-leukemic approach” (PLOS One, 2025).
pIC50: −log10 of the molar value.

Tested on: TAF1
Conditions: reference compounds; read-out: TAF1 IC50, literature-reported; cited from earlier work

## Cc1cc2c(cc1N1C(=O)c3cccc4c(CCCO)ccc(c34)C1=O)n(C)c(=O)n2C [BAY299]
  pIC50: 8.10
